This is an account of results in US8703752B2 (priority 2003, dated 2014).

The subject of data set [1] is Hedgehog protein signaling pathway. In words: Inhibition of Shh-induced differentiation of C3H10T1/2 cells (alkaline phosphatase activity, OD 415 nm). It counts as cell-based, mouse. As to conditions: for inhibition of the alkaline phosphatase activity induced by the overexpression of Shh: 10 μM, 5 days, C3H10T1/2 cells transfected with Shh plasmid pRK5. How it is done: The differentiation of the C3H10T1/2 cells, which is accompanied by induction of alkaline phosphatase activity, is then evaluated by measuring the optical density at 415 nm, in the presence of the alkaline phosphatase substrate, para-nitrophenyl phosphate. The values indicated correspond to the mean±standard error (n=4), and
The inhibition of differentiation of the C3H10T1/2 cells is expressed through the percentage alkaline phosphatase activity, relative to the nontreated cells (maximum activity=100%). The values indicated correspond to the mean±standard error (n=4) of two independent experiments.
The C3H10T1/2 pluripotent fibroblast cell line (ATCC) is cultured under the conditions recommended by the ATCC. C3H10T1/2 cells were transfected with the plasmid pRK5 encoding the mouse Shh protein (Taipale et al., Nature, 2001, 411, 349-354), using calcium phosphate, according to conventional protocols.

The next data set relates to mammalian embryos. As to conditions: cited from earlier work.
The next data set has as its target glucocorticoid receptors (Homo sapiens, UniProt P04150). As to conditions: cited from earlier work.

Sequence of glucocorticoid receptors (P04150 whole entry): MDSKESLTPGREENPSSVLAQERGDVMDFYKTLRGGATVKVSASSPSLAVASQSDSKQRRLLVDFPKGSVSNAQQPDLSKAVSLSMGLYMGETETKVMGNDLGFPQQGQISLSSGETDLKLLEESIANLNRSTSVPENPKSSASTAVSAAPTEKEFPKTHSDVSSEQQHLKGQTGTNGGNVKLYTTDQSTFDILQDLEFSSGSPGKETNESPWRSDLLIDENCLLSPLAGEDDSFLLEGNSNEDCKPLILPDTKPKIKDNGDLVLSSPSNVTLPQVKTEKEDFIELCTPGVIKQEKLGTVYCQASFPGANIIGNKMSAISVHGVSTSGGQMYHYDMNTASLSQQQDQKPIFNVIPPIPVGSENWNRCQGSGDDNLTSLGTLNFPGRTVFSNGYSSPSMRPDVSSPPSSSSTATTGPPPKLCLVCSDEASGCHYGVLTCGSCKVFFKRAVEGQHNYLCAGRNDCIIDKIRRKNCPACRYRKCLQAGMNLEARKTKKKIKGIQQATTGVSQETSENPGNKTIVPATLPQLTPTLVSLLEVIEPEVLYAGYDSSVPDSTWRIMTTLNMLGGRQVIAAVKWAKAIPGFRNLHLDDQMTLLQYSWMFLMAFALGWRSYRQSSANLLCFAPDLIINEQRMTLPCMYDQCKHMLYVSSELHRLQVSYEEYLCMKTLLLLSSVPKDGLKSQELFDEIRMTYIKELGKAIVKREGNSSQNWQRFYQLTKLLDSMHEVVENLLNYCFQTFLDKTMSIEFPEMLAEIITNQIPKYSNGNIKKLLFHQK

On to `CC1=C2C[C@H]3[C@@H](CC=C4C[C@@H](O)CC[C@@]43C)[C@@H]2CC[C@]12O[C@@H]1C[C@H](C)CN[C@H]1[C@H]2C` [cyclopamine], for which the “inhibition of the alkaline phosphatase activity induced by the overexpression of Shh” value in data set [1] is recorded as “completely inhibited”. Besides, the teratogenic effect result with mammalian embryos was “teratogenic agent that causes holoprosencephaly and cyclopia”.
As to `CC#C[C@]1(O)CC[C@H]2[C@@H]3CCC4=CC(=O)CCC4=C3[C@@H](c3ccc(N(C)C)cc3)C[C@@]21C` [mifepristone, 17β-hydroxy-11β-(4-dimethylaminophenyl)-17α-(prop-1-ynyl)estra-4,9-dien-3-one], in data set [1], the “inhibition of the alkaline phosphatase activity induced by the overexpression of Shh” value was “completely inhibits”. Also, the IC50 in data set [1] (C3H10T1/2 cells transfected with Shh plasmid pRK5, treated 5 days, 1 nM to 10 μM, alkaline phosphatase activity, mean±standard error (n=4), two experiments, read-out: concentration that inhibits 50% of cell differentiation (IC50)) was determined as 3.7 µM. For the same molecule, the teratogenic effect entry in the data set on mammalian embryos is “devoid of any teratogenic effect”. For the same molecule, the “affinity for glucocorticoid receptors” value on glucocorticoid receptors is given as “strong affinity”.
